Measured values: patent US12569470B2, “Vasodilator and use thereof” (Bioradical Research Institute Corp., priority 2019, dated 2026)

Legend:
[1] = Storage stability in pH7.4-PBS or pure water at 37° C., residual rate by HPLC; type: physicochemical; conditions: for Residual rate (%) After 1 week / Residual rate (%) After 2 weeks: 200 μmol/1, 37° C., protected from light; for Residual rate (%) Initial concentration: 200 μmol/1, initial concentration (100%) being a reference
Method: The storage stability of edaravone, EMPO, ED2AP, and BisEp-C3 of the following formula (A) were examined. Specifically, edaravone, EMPO, ED2AP, and BisEp-C3 were dissolved in pH7.4-PBS or pure water so as to have a final concentration of 200 μmol/1 to prepare dissolved solutions of these compounds. When the compounds were difficult to be dissolved, they were dissolved in an ultrasonic cleaner with warm water at 40° C.
Under the measurement conditions for High-Performance Liquid Chromatography (HPLC) described below, the initial concentration was quantified, and then each solution was stored in an oven, which was protected from light, at 37° C., and quantified under the same measurement conditions after 1 week and 2 weeks, to determine residual rate (%) with the initial concentration (100%) being a reference.
Measurement Conditions for HPLC
High-Performance Liquid Chromatography (Shimadzu Corporation)
Data-processing software (Model: LCsolution Ver. 1.0, produced by Shimadzu Corporation)
Pump (Model: LC-20AD; produced by Shimadzu Corporation)
Column oven (Model: CTO-20A; produced by Shimadzu Corporation)
Autosampler (Model: SIL-20A; produced by Shimadzu Corporation)
PDA detector (Format: SPD-M20A)
Column: Atlantis dC18 5 μm (250×4.6 mm I.D.; produced by Waters)
Column temperature: 45° C.
Detection method: UV (254 nm)
Eluate A: pH3 buffer solution (adjusted to pH3 by adding phosphoric acid to 0.05M KH2PO4 aqueous solution)/methanol=90/10

[2] = tested on: superoxide produced by the neutrophils; assay: Superoxide-eliminating ability of PBS solutions before and after storage for 10 days; type: cell-based, human; conditions: PBS solution stored for 10 days versus immediately after preparation, 0-200 μmol/1, FIG. 4
Method: First, ED2AP, BisEp-C3, edaravone, BisEp-C1, or BisEp-C1 (H2) was added to a neutrophil of 4×10^5 cells per sample so as to achieve a predetermined concentration (0, 12.5, 25, 50, 100, or 200 μmol/1, or 0, 125, 250, 500, 1,250, 2,500 or 5,000 μmol/1) with […] of CLA, and then the cell suspension was seeded in flat-bottomed 96-well plates. The volume of the suspension was 200 μl/well, and phenol red-free Ca+, Mg+ HBSS was used as the solution. In addition, the neutrophil was stimulated by adding PMA so as to achieve a concentration of 100 ng/ml. After the stimulation, a plate reader (Envision 2104 Multilabel Reader produced by Perkin Elmer Co., Ltd.) was used to measure the chemiluminescence value over time for 30 minutes with the PMA stimulation time being a reference. The measurement interval was 30 seconds. […] In addition, as a control, the superoxide production amount was measured in the same manner except that each compound was not added. The relative value of the superoxide production amount when each compound was added was calculated with the superoxide production amount of the control being 100.
PBS solutions of ED2AP, BisEp-C3, and edaravone were prepared in the same manner as in Example 2 and stored for 10 days. […] Then, the relative value of the superoxide production amount of each sample was calculated with the superoxide production amount of the sample of 0 μmol/1 being 100.

rat neuroid cells B50 [3] = assay: Toxicity evaluation, cell viability by Alamar Blue; type: cell-based; conditions: 12.5, 25, 50, 100, or 200 μmol/1, 24 hours, FIG. 5
Method: Rat neuroid cells B50 were seeded in 12-well plates and then cultured. Edaravone (RC), ED2AP, or BisEp-C3 was added to each well so as to achieve a predetermined concentration (12.5, 25, 50, 100, or 200 μmol/1), and then incubated for 24 hours at 37° C. and 5% CO2. Cell viability in each well after the culture was measured using Alamar Blue.

rat neuroid cells B50 [4] = assay: Toxicity evaluation on byproducts after reaction with singlet oxygen; type: cell-based; conditions: byproducts after reaction with singlet oxygen, 50, 100, or 200 μmol/1, FIG. 6
Method: In a cell-free system, the RB was added to media (5% FCS-containing RPMI-1640 media) containing edaravone, ED2AP, and BisEp-C3 having a predetermined concentration (50, 100, or 200 μmol/1) and then irradiated with LED (G-LED) at 525 nm to generate singlet oxygen, whereby reacting each compound with singlet oxygen. The cell viability was measured in the same manner as in Example 7(1), except that the culture solution after the reaction was used as a medium of the neuroid cell B50. As a negative control (NC), the cell viability was measured in the same manner except that each compound and […] were not added in the cell-free system. Further, as a control (RB), the cell viability was measured in the same manner except that each compound was not added and only […] was added in the cell-free system.

SMILES | Residual rate (%) After 1 week ([1]; Pure water) | Residual rate (%) After 2 weeks ([1]; Pure water) | Residual rate (%) Initial concentration ([1]; Pure water) | Residual rate (%) After 1 week ([1]; pH 7.4-PBS) | Residual rate (%) After 2 weeks ([1]; pH 7.4-PBS) | Residual rate (%) Initial concentration ([1]; pH 7.4-PBS) | superoxide-eliminating ability after storage [2] | cell viability (cytotoxicity) (rat neuroid cells B50 [3]) | cell viability (cytotoxicity of byproducts) (rat neuroid cells B50 [4])
CCN1N=C(C)/C(=C\C=C\c2c(C)nn(CC)c2O)C1=O [BisEp-C3, 2,4-dihydro-4-[3-(1-ethyl-5-hydroxy-3-methyl-1H-pyrazol-4-yl)-2-propen-1-ylidene]-2-ethyl-5-methyl-3H-pyrazol-3-one] | 99.4% | 88.5% | 100% | 98.7% | 93.6% | 100% | maintained the superoxide-eliminating ability equivalent to that immediately after preparation | not cytotoxic at any concentration | not cytotoxic at any concentration
CC1=NN(c2ccccc2)C(=O)/C1=C/C=C/c1c(C)nn(-c2ccccc2)c1O [ED2AP, 2,4-dihydro-4-[3-(5-hydroxy-3-methyl-1-phenyl-1H-pyrazol-4-yl)-2-propen-1-ylidene]-5-methyl-2-phenyl-3H-pyrazol-3-one] | 96.1% | 89.8% | 100% | 96.2% | 91.3% | 100% | maintained the superoxide-eliminating ability equivalent to that immediately after preparation | not cytotoxic at any concentration | not cytotoxic at any concentration
